Laboratory results: publication PMC9501232, “Novel 4-Azapregnene Derivatives as Potential Anticancer Agents: Synthesis, Antiproliferative Activity and Molecular Docking Studies” (Molecules, 2022)

Tests used:
Type in all cases: cell-based, human
[1] = system: caspase-9 activity in T47-D cells; assay: Caspase-Glo 9 caspase-9 activity assay; details: 48 h, DOX 10 µM, 3g 10 and 20 µM, relative to untreated cells
Method: Promega Caspase-Glo 9 assay (Promega, Madison, WI, USA) was employed to evaluate the caspase-9 activity. T47-D cells were seeded in a 96 multiwell plate at a density of 4 × 10^4 cells/mL. After 48 h, cells were treated with the positive control, DOX, at 10 μM and with 10 and 20 μM of 3g, during 48 h. The assay was performed at the end of treatment, following the instructions provided by the manufacturer. Data are representative of at least two experiments (n = 4 in each).

PC-3 cells = assay: MTT cell proliferation assay, PC-3
Method: Cell lines, namely LNCaP, PC-3, T47-D and NHDF were obtained from American Type Culture Collection (ATCC; Manassas, VA, USA) and cultured in 75 cm^2 culture flasks at 37 °C in a humidified air incubator with 5% CO2. LNCaP, PC-3 and T47-D cells, which were used in passages 20th to 27th, 25th to 29th and 10th to 15th, respectively, were cultured in RPMI 1640 medium (Sigma-Aldrich, Inc., St. Louis, MO, USA) with 10% fetal bovine serum (FBS; Sigma-Aldrich, Inc. St. Louis, MO, USA) and 1% of the antibiotic mixture of 10,000 IU/mL penicillin G and […] of streptomycin (Sp, Sigma-Aldrich, Inc. St. Louis, MO, USA). Finally, NHDF cells (Normal Human Dermal Fibroblasts) were cultured in RPMI 1640 medium supplemented with 10% FBS, 2 mM L-glutamine, 10 mM HEPES, 1 mM sodium pyruvate and 1% of an antibiotic/antimycotic mixture (10,000 U/mL penicillin G, 100 mg/mL streptomycin and 25 µg/mL amphotericin B) (Ab; Sigma-Aldrich, Inc. St. Louis, MO, USA), and these cells were used in passages 10 to 12. For all cell types, the medium was renewed every 2–3 days until cells reach nearly the confluence state. Then, they were detached gently by trypsinization (trypsin-EDTA solution: 0.125 g/L of trypsin and 0.02 g/L of EDTA).
All the stock solutions were prepared by dissolving compounds in dimethyl sulfoxide (DMSO; Sigma-Aldrich, Inc., St. Louis, MO, USA) at 10 mM and stored at 4 °C. From these solutions, the several diluted compounds solutions in different concentrations were freshly prepared in a complete culture medium before each experiment.
As previously referred, cells were trypsinized after reaching a near confluence state and counted by the trypan blue exclusion assay in a Neubauer chamber. Then, 100 µL of cell suspension/well with an initial density of 2 × 10^4 cells/mL were seeded in 96-well culture plates (Nunc, Apogent, Denmark) and left to adhere for 48 h. After cells adherence, the medium was replaced by the distinct solutions of the compounds in the study (30 µM for preliminary studies and 0.01, 0.1, 1, 10, 50 and 100 µM for concentration–response studies) in the appropriate medium for approximately 72 h. 5-FU and finasteride were used as positive controls and untreated cells were used as the negative control. Each experiment was performed in quadruplicate and independently performed at least two times. The in vitro antiproliferative effects were evaluated by the MTT assay (Sigma-Aldrich, Inc. St. Louis, USA). After the incubation period, the medium was removed and 100 µL of phosphate buffer saline (NaCl 137 mM, KCl 2.7 mM, Na2HPO4 10 mM and KH2PO4 1.8 mM in deionized water and pH adjusted to 7.4) were used to wash the cells. Then, 100 µL of the MTT solution (5 mg/mL) was prepared in the appropriate serum-free medium and was added to each well, followed by incubation for 4 h at 37 °C. Hereafter, the MTT containing medium was removed and the formazan crystals were dissolved in DMSO. Then the absorbance was measured at 570 nm using a microplate spectrophotometer BIO-RAD xMarkTM. Cell viability values were expressed as percentages relative to the absorbance determined in the cells used as negative controls.
The data are expressed as a mean ± standard deviation (SD) and differences between groups were considered statistically significant when p < 0.05. The IC50 values were determined through sigmoidal fitting analysis with variable slope and considering a 95% confidence level. All data shown are representative of at least two independent experiments.

T47-D cells = assay: Cell nuclear morphology and distribution analysis with ImageJ
Excerpt: The nuclear measurements were achieved by converting 16-bit photomicrographs of Hoechst 3342-stained nuclei, in different conditions, into 8-bit images and then these images were autothresholded to binary photos using the default method “Make binary” function of ImageJ v 1.49. Cell nuclei that are touching were separated and fragments were discarded based on the area through the “Analyze Particle” function. This function also provides several information pretended as nuclear area, circumference and form factor [33]. In addition, the “Nearest Neighbor Distance” was determined. This function allows measuring the distance between each cell nucleus and the nearest ones.

LNCaP cells = assay: Flow cytometry cell viability after PI staining; details: 50 µM
Method: Similar to the previous study, the analysis of cell viability was accomplished by flow cytometry after staining dead cells with propidium iodide (PI; Invitrogen, Carlsbad, USA). Succinctly, 1 mL of a cell suspension was seeded in 12-well culture plates (initial cell density of 5 × 10^4 cells/mL of LNCaP cells for 24 h assay and 2 × 10^4 cells/mL of the same cell line for 72 h assay) in a complete culture medium. After 48 h, the cells were treated with finasteride and 5-FU, as positive controls, and compound 3g at a concentration of 50 µM. Untreated cells were used as a negative control. At the pretended time point, the supernatant was collected and pooled with the cells harvested by trypsin treatment (each well was also washed with 400 µL of PBS before trypsin treatment). The resulting cell suspension was kept on ice and pelleted by centrifugation and resuspended with 400 µL of complete medium. Afterward, 5 µL of PI (1 mg/mL) was transferred to a FACS tube and 395 µL of the cell suspension was added to this tube. A total of 20,000 events (very small events excluded) were acquired using a FACSCalibur flow cytometer, using the FCS, SSC and FL3 (PI) channels. Acquisition and analysis were executed with CellQuestTM Pro (v. 5.1) software. […] The percentages of each region were calculated for a total of R1 + R2 + R3. […]

Compound: C[C@]12CC[C@H]3[C@@H](CC=C4NC(=O)CC[C@@]43C)[C@@H]1CC[C@@H]2C(=O)/C=C/c1cccnc1 [Compound 3g, 21E-[(Pyridin-3-yl)methylidene]-4-azapregn-5-ene-3,20-dione]
- Caspase-9 activity [1]: significant elevation in caspase-9 activity
- IC50 (PC-3 cells; Homo sapiens, PC-3, 72 h, MTT): 3.64 µM
- MTT screening, cell proliferation (PC-3 cells; PC-3, 30 µM, 72 h, average ± SD): 0.1 ± 0.1 percentage of negative control
- Nuclear area (T47-D cells; 20 µM, 24, 48 and 72 h, vs control): significant decrease in the nuclear area
- Nearest neighbor distance (NND) of cell nuclei (T47-D cells; 20 µM, 48 and 72 h): different distances
- Number of living cells (PI non-permeant) (LNCaP cells; 24 h): drastic reduction in the number of living cells
- Number of viable cells (PI non-permeant) (LNCaP cells; 72 h): almost absent
